# Measured values taken from patent US20210063414A1, “METHODS FOR PREVENTING AND/OR TREATING BONE LOSS CONDITIONS BY MODULATING IRISIN” (Dana-Farber Cancer Institute, Inc., priority 2018, published 2021).
# Tested on: inguinal fat
# Experiment: Irisin injection in mice: Ucp1/Dio2 mRNA and Ucp1 protein in inguinal fat
# Assay type: in vivo
# Details: mice, co-injection with irisin
# Experimental: FIG. 18A-FIG. 18B show mRNA and protein levels of indicated genes. 1 mg/kg irisin was injected to 8-week old mice every other day for 6 days. mRNA levels of indicated genes in inguinal fat were analyzed by qRT-PCR. Cyclophilin was used for housekeeping gene (FIG. 18A). Inguinal fats were also lysed to detect the indicated protein level using immunoblot analysis (FIG. 18B). FIGS. 18C and 18D show mRNA and protein levels of indicated genes. Mice were treated and analyzed as (A-B) with addition of coinjection of […] control RGD peptide or cyclo RGDyK (cRGDyK). mRNA levels of indicated genes in inguinal fat were analyzed by qRT-PCR. Cyclophilin was used for house-keeping gene (FIG. 18C). Inguinal fats were also lysed to detect the indicated protein level using immunoblot analysis (FIG. 18D). […] Ucp1 mRNA level was analyzed by qRT-PCR. […]
# RNA was extracted from cultured cells or frozen tissues using TRIzol® (Thermo Fischer Scientific) and purified with RNeasy® mini kit (QIAGEN 74106). […] To perform qRT-PCR analysis, normalized RNA was reverse transcribed using a high-capacity cDNA reverse-transcription kit (Applied Biosystems™). cDNA was analyzed by qRT-PCR with indicated primers. Relative mRNA levels were calculated using the comparative CT method and normalized to cyclophilin mRNA. […]
smiles,measurement,value
N=C(N)NCCC[C@@H]1NC(=O)[C@H](CCCCN)NC(=O)[C@@H](Cc2ccc(O)cc2)NC(=O)[C@H](CC(=O)O)NC(=O)CNC1=O [cyclo RGDyK],effect on irisin induction of the protein level of Ucp1,blocked
same,effect on irisin-induced gene expression of Ucp1 and Dio2,blocked
